Read-outs that look alike come from different tables or passages of the source.
Legend:
[1] = tested on: subjects with mild to moderate RA; experiment: Study 2-Part 2: safety and tolerability, subjects with RA; type: in vivo, human
Description: (§1) Subjects received study drug for 26 consecutive days (Study Days 3 through 28) and a single morning dose of study drug on Study Day 29. […] Subjects were confined to the study site for a total of 10 days—from Day 1 to Day 4 and from Day 27 to Day 31.
Safety was evaluated based on assessments of adverse events, vital signs, physical examination, laboratory metrics, and 12-lead electrocardiogram (ECG). All subjects who received at least one dose of study drug were included in the safety analyses. Subjects who were administered placebo were pooled into a single group within each study or study part. Laboratory test values and vital signs measurements that were above or below the reference range were identified. Subjects were followed-up for a total of 7 days in Study 1, 35 days in Study 2-Part 1, and 57 days in Study 2-Part 2. […] In subjects with RA, the severity of adverse events were rated by the investigator as mild (transient and easily tolerated by the subject), moderate (causes subject discomfort and interrupts the subject's usual activities), or severe (causes considerable interference with the subject's usual activities and may be incapacitating or life-threatening).

[2] = clinical; conditions: human, oral; for AUC(0-t) / half-life: plasma; for CL renal: urine and plasma
Description: (§2) Both evaluations followed randomized, double-blind, placebo-controlled designs. Part 1 was conducted at PPD Development (Austin, Tex.) and Part 2 was conducted at two sites: Aspen Clinical Research (Orem, Utah) and Altoona Center for Clinical Research (Duncansville, Pa.). Study protocol and informed consents were approved by RCRC IRB (Austin, Tex.) and Quorum Review IRB (Seattle, Wash.).
(§3) Study drug was administered approximately 30 minutes after a standard breakfast (in the morning) or a snack (in the evening). […] Subjects were confined to the study site and supervised for approximately 18 days.
(§4) Samples quantified below the LLOQ were reported as zero.
(§5) Renal clearance (CLr) was calculated as Au,0-12/AUC0-12 at steady state.
(§6) Statistical analyses were performed using SAS software (Version 9.3; SAS institute Inc., Cary, N.C., USA).

[3] = clinical; conditions: human, plasma, oral, 48 mg
Description: (§7) Study 1 was designed as a single-site, randomized, double-blind, placebo-controlled study. […] Study drug was administered following at least 10 hours of fasting. […] Subjects were confined to the study site and supervised for approximately 8 consecutive days.
as §4, §5, §6

[4] = Study 2-Part 1: multiple-dose escalation PK in healthy subjects
Description: as §2, §3, §4, §5, §6

[5] = tested on: healthy subjects; experiment: Study 2-Part 1: safety and tolerability, multiple doses, healthy subjects; type: in vivo, human
Description: as §3
Safety was evaluated based on assessments of adverse events, vital signs, physical examination, laboratory metrics, and 12-lead electrocardiogram (ECG). All subjects who received at least one dose of study drug were included in the safety analyses. Subjects who were administered placebo were pooled into a single group within each study or study part. Laboratory test values and vital signs measurements that were above or below the reference range were identified. […] In subjects with RA, the severity of adverse events were rated by the investigator as mild (transient and easily tolerated by the subject), moderate (causes subject discomfort and interrupts the subject's usual activities), or severe (causes considerable interference with the subject's usual activities and may be incapacitating or life-threatening).

[6] = clinical; conditions: human, oral; for half-life: plasma; for CL renal: urine and plasma, CLr
Description: Both evaluations followed randomized, double-blind, placebo-controlled designs. Part 1 was conducted at PPD Development (Austin, Tex.) and Part 2 was conducted at two sites: Aspen Clinical Research (Orem, Utah) and Altoona Center for Clinical Research (Duncansville, Pa.).
as §1, §4, §5

[7] = Pharmacokinetic interaction of Compound 1 and methotrexate (dose-normalized AUC); type: in vivo, human; conditions: FIG. 35A
[8] = Study 1: single-dose escalation PK in healthy subjects
Description: as §7, §4, §5, §6

[9] = tested on: healthy subjects; experiment: Study 1: safety and tolerability, single doses, healthy subjects
Description: as §7
Safety was evaluated based on assessments of adverse events, vital signs, physical examination, laboratory metrics, and 12-lead electrocardiogram (ECG). All subjects who received at least one dose of study drug were included in the safety analyses. Subjects who were administered placebo were pooled into a single group within each study or study part. Laboratory test values and vital signs measurements that were above or below the reference range were identified. Subjects were followed-up for a total of 7 days in Study 1, 35 days in Study 2-Part 1, and 57 days in Study 2-Part 2.

[10] = 6 mg BID, Day 14, healthy subjects
[11] = 12 mg BID, Day 14, healthy subjects
[12] = 24 mg BID, Day 14, healthy subjects
[13] = multiple twice-daily doses 3 mg
[14] = multiple twice-daily doses 6 mg
[15] = multiple twice-daily doses 12 mg
[16] = multiple twice-daily doses 24 mg
[17] = multiple twice-daily doses, Total Compound 1
[18] = single 48 mg dose, healthy subjects
[19] = on average across all dose groups

CC[C@@H]1CN(C(=O)NCC(F)(F)F)C[C@@H]1c1cnc2cnc3[nH]ccc3n12 [Compound 1, (3S,4R)-3-ethyl-4-(3H-imidazo[1,2-a]pyrrolo[2,3-e]pyrazin-8-yl)-N-(2,2,2-trifluoroethyl)pyrrolidine-1-carboxamide]
subjects with at least one TEAE ([1]; Compound 1 dose groups (total of 11 subjects with RA)): Five subjects
number of TEAEs reported ([1]; Compound 1 dose groups, subjects with RA): 7
AUC(0-t) ([2]; 3 mg): 78.3 ± 20.3 ng·h/mL
half-life ([2]; 3 mg): 192 ± 24 min
AUC(0-t) ([2]; 6 mg): 138 ± 16.7 ng·h/mL
half-life ([2]; 6 mg): 198 ± 18 min
half-life ([2]; 12 mg): 192 ± 30 min
CL renal ([2]; 3 mg): 125 mL/min
CL renal ([2]; 12 mg): 162 mL/min
AUC(0-inf) [3]: 1040 ± 174 ng·h/mL
AUC(0-t) [3]: 1030 ± 174 ng·h/mL
Ctrough ([4]; 3 mg BID, Day 14, healthy subjects): 1.46 ± 0.50 ng/mL
CL/F [4, 10]: 43.9 ± 5.4 L/h
Ctrough [4, 10]: 2.29 ± 0.41 ng/mL
CL/F [4, 11]: 45.5 ± 8.04 L/h
Ctrough [4, 11]: 4.54 ± 1.55 ng/mL
CL/F [4, 12]: 46.1 ± 6.44 L/h
Ctrough [4, 12]: 9.50 ± 2.57 ng/mL
t1/2F (functional half-life) ([4]; 24 mg BID, Day 14, healthy subjects, harmonic mean ± pseudo-SD): 3.3 ± 0.4 h
functional half-life ([4]; estimated from Cmax to Ctrough ratio at steady-state, healthy volunteers): approximately 3 hours
pre-dose concentrations on Study Day 13 lower compared with Study Day 5 ([4]; multiple dosing, healthy volunteers): 13%
Abdominal Discomfort, subjects [5, 13]: 0
Abdominal Pain, subjects [5, 13]: 0
Diarrhoea, subjects [5, 13]: 0
Headache, subjects [5, 13]: 0
Nasopharyngitis, subjects [5, 13]: 1 (12.5%)
Abdominal Discomfort, subjects [5, 14]: 0
Abdominal Pain, subjects [5, 14]: 1 (12.5%)
Diarrhoea, subjects [5, 14]: 1 (12.5%)
Headache, subjects [5, 14]: 2 (25.0%)
Nasopharyngitis, subjects [5, 14]: 1 (12.5%)
Abdominal Discomfort, subjects [5, 15]: 0
Abdominal Pain, subjects [5, 15]: 0
Diarrhoea, subjects [5, 15]: 1 (12.5%)
Headache, subjects [5, 15]: 2 (25.0%)
Nasopharyngitis, subjects [5, 15]: 0
Abdominal Discomfort, subjects [5, 16]: 0
Abdominal Pain, subjects [5, 16]: 1 (12.5%)
Diarrhoea, subjects [5, 16]: 0
Headache, subjects [5, 16]: 1 (12.5%)
Nasopharyngitis, subjects [5, 16]: 0
Abdominal Discomfort, subjects [5, 17]: 0
Abdominal Pain, subjects [5, 17]: 2 (6.3%)
Diarrhoea, subjects [5, 17]: 2 (6.3%)
Headache, subjects [5, 17]: 5 (15.6%)
Nasopharyngitis, subjects [5, 17]: 2 (6.3%)
changes in hematologic parameters ([5]; multiple-dose administration in healthy subjects for 14 days): no clinically significant changes
half-life ([6]; 6 mg, t1/2F (functional half-life), 6 mg BID, Day 29, subjects with RA, harmonic mean): 210 min
half-life ([6]; 12 mg, t1/2F (functional half-life), 12 mg BID, Day 29, subjects with RA, harmonic mean): 222 min
half-life ([6]; 24 mg, t1/2F (functional half-life), 24 mg BID, Day 29, subjects with RA, harmonic mean): 216 min
half-life ([6]; functional half-life, subjects with RA on stable doses of methotrexate): ~240 min
CL renal ([6]; 6 mg, 6 mg BID, Day 28, subjects with RA): 116 mL/min
CL renal ([6]; 6 mg, 6 mg BID, Day 29, subjects with RA): 82.2 mL/min
CL renal ([6]; 12 mg, 12 mg BID, Day 28, subjects with RA): 104 mL/min
CL renal ([6]; 12 mg, 12 mg BID, Day 29, subjects with RA): 82.7 mL/min
CL renal ([6]; 24 mg, 24 mg BID, Day 28, subjects with RA): 105 mL/min
effect of concomitant methotrexate administration on Compound 1 dose-normalized AUC [7]: lack of effect
CL/F [8, 18]: 47.6 ± 8.97 L/h
dose-normalized AUC∞ lower than that following 3 mg dose [8, 18]: 40%
Dose proportionality of exposures ([8]; single dose range of 3 to 36 mg and multiple dose range of 3 mg to 24 mg BID): dose proportional
Headache, subjects ([9]; single dose 48 ng): 2 (33.3%)
Presyncope, subjects ([9]; single dose 48 ng): 0
Headache, subjects ([9]; single dose 1 mg): 0
Presyncope, subjects ([9]; single dose 1 mg): 0
Headache, subjects ([9]; single dose 3 mg): 0
Presyncope, subjects ([9]; single dose 3 mg): 0
Headache, subjects ([9]; single dose 6 mg): 0
Presyncope, subjects ([9]; single dose 6 mg): 1 (16.7%)
Headache, subjects ([9]; single dose 12 mg): 0
Presyncope, subjects ([9]; single dose 12 mg): 0
Headache, subjects ([9]; single dose 24 mg): 0
Presyncope, subjects ([9]; single dose 24 mg): 1 (16.7%)
Headache, subjects ([9]; single dose 36 mg): 0
Presyncope, subjects ([9]; single dose 36 mg): 0
Tolerability ([9]; single doses up to 48 mg and multiple twice daily doses up to 24 mg, immediate-release formulation): well-tolerated
dose-limiting toxicities or safety concerns ([9]; single doses up to 48 mg or multiple doses up to 24 mg twice daily): no dose-limiting toxicities or safety concerns
Presyncope, subjects ([9]; single doses, Total Compound 1): 2 (4.8%)
Severity of TEAEs ([9]; single doses, healthy subjects): mild
maximum tolerated dose ([9]; single or multiple dose studies): not reached
Ctrough (6 mg BID, Day 28, subjects with RA): 5.81 ng/mL
AUC0-12 (12 mg BID, Day 28, subjects with RA): 334 ng·h/mL
Ctrough (12 mg BID, Day 29, subjects with RA): 6.44 ng/mL
Ctrough (24 mg BID, Day 28, subjects with RA): 15.3 ng/mL
Ctrough (24 mg BID, Day 29, subjects with RA): 14.9 ng/mL
apparent oral clearance lower in subjects with RA compared to healthy subjects [19]: 23%
higher exposure in subjects with RA than in healthy subjects [19]: approximately 30%
